Results as given in ChEMBL document CHEMBL1130110 (J Med Chem, 1997).

Legend:
[1] = target: Glucagon receptor (Rattus norvegicus) (UniProt P30082); assay: Relative binding potency expressed as receptor binding IC50 for glucagon by receptor binding IC50 for compound
[2] = target: Glucagon receptor (Rattus norvegicus) (UniProt P30082); assay: Percent stimulation of cAMP production over basal.; type: functional; design: concentration or dose not given beside the values

Sequence of Glucagon receptor (Rattus norvegicus) (P30082 whole entry): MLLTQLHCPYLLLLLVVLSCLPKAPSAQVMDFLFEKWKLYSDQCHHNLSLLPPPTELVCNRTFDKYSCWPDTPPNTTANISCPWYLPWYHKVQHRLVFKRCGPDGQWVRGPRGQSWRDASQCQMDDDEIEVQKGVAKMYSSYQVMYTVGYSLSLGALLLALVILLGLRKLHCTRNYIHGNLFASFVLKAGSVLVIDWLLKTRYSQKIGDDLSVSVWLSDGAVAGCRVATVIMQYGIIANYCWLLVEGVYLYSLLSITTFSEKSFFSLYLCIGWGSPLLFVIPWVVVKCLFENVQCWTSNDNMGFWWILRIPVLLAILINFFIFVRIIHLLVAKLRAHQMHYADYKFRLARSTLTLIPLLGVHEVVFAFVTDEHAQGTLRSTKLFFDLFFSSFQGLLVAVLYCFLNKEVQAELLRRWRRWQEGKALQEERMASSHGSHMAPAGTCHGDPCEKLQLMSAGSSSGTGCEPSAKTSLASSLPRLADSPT

Row | Activity [1] | Activity [2] | Compound
1 | 1% | 0% | CSCC[C@@H](NC(=O)[C@@H](CC(C)C)NC(=O)[C@@H](Cc1c[nH]c2ccccc12)NC(=O)[C@@H](CCC(N)=O)NC(=O)[C@H](NC(=O)[C@@H](Cc1ccccc1)NC(=O)[C@@H](CC(=O)O)NC(=O)[C@@H](CCC(N)=O)NC(=O)[C@@H](C)NC(=O)[C@@H](CCCN=C(N)N)NC(=O)[C@@H](CCCN=C(N)N)NC(=O)[C@@H](CO)NC(=O)[C@@H](CC(=O)O)NC(=O)[C@@H](CC(C)C)NC(=O)[C@@H](Cc1ccc(O)cc1)NC(=O)[C@@H](CCCCN)NC(=O)[C@@H](CO)NC(=O)[C@@H](Cc1ccc(O)cc1)NC(=O)[C@@H](CC(=O)O)NC(=O)[C@@H](CO)NC(=O)[C@H](NC(=O)[C@H](NC(=O)CNC(=O)[C@@H](CCC(N)=O)NC(=O)[C@H](N)CO)[C@H](C)O)[C@H](C)O)C(C)C)C(=O)N[C@H](CC(N)=O)C(=O)N[C@@H](C(=O)O)[C@H](C)O
2 | < 0.1% | 0% | CSCC[C@@H](NC(=O)[C@@H](CC(C)C)NC(=O)[C@@H](Cc1c[nH]c2ccccc12)NC(=O)[C@@H](CCC(N)=O)NC(=O)[C@H](NC(=O)[C@@H](Cc1ccccc1)NC(=O)[C@@H](CC(=O)O)NC(=O)[C@@H](CCC(N)=O)NC(=O)[C@@H](C)NC(=O)[C@@H](CCCN=C(N)N)NC(=O)[C@@H](CCCN=C(N)N)NC(=O)[C@@H](CO)NC(=O)[C@@H](CC(=O)O)NC(=O)[C@@H](CC(C)C)NC(=O)[C@@H](Cc1ccc(O)cc1)NC(=O)[C@@H](CCCCN)NC(=O)[C@@H](CO)NC(=O)[C@@H](Cc1ccc(O)cc1)NC(=O)[C@@H](CCC(=O)O)NC(=O)[C@@H](CO)NC(=O)[C@H](NC(=O)[C@H](NC(=O)CNC(=O)[C@@H](CCC(N)=O)NC(=O)[C@H](N)CO)[C@H](C)O)[C@H](C)O)C(C)C)C(=O)N[C@H](CC(N)=O)C(=O)N[C@@H](C(=O)O)[C@H](C)O (stereo in doubt; 12)
3 | < 0.1% | 0% | CSCC[C@@H](NC(=O)[C@@H](CC(C)C)NC(=O)[C@@H](Cc1c[nH]c2ccccc12)NC(=O)[C@@H](CCC(N)=O)NC(=O)[C@H](NC(=O)[C@@H](Cc1ccccc1)NC(=O)[C@@H](CC(=O)O)NC(=O)[C@@H](CCC(N)=O)NC(=O)[C@@H](C)NC(=O)[C@@H](CCCN=C(N)N)NC(=O)[C@@H](CCCN=C(N)N)NC(=O)[C@@H](CO)NC(=O)[C@@H](CC(=O)O)NC(=O)[C@@H](CC(C)C)NC(=O)[C@@H](Cc1ccc(O)cc1)NC(=O)[C@@H](CCCCN)NC(=O)[C@@H](CO)NC(=O)[C@@H](Cc1ccc(O)cc1)NC(=O)[C@@H](CCC(=O)O)NC(=O)[C@@H](CO)NC(=O)[C@H](NC(=O)[C@H](NC(=O)CNC(=O)[C@@H](CCC(N)=O)NC(=O)[C@H](N)CO)[C@H](C)O)[C@H](C)O)C(C)C)C(=O)N[C@H](CC(N)=O)C(=O)N[C@@H](C(=O)O)[C@H](C)O (stereo in doubt; 13)
4 | 3.1% | 0% | CSCC[C@@H](NC(=O)[C@@H](CC(C)C)NC(=O)[C@@H](Cc1c[nH]c2ccccc12)NC(=O)[C@@H](CCC(N)=O)NC(=O)[C@H](NC(=O)[C@@H](Cc1ccccc1)NC(=O)[C@@H](CC(=O)O)NC(=O)[C@@H](CCC(N)=O)NC(=O)[C@@H](C)NC(=O)[C@@H](CCCN=C(N)N)NC(=O)[C@@H](CCCN=C(N)N)NC(=O)[C@@H](CO)NC(=O)[C@@H](CC(=O)O)NC(=O)[C@@H](CC(C)C)NC(=O)[C@@H](Cc1ccc(O)cc1)NC(=O)[C@@H](CCCCN)NC(=O)[C@@H](CO)NC(=O)[C@@H](Cc1ccc(O)cc1)NC(=O)[C@@H](CCC(=O)O)NC(=O)[C@@H](CO)NC(=O)[C@H](NC(=O)[C@H](NC(=O)CNC(=O)[C@@H](CCC(N)=O)NC(=O)[C@H](N)CO)[C@H](C)O)[C@H](C)O)C(C)C)C(=O)N[C@H](CC(N)=O)C(=O)N[C@@H](C(N)=O)[C@H](C)O

Further lines, the compound ahead of its results:

Row | Compound | Activity [1] | Activity [2]
5 | CC(C)C[C@@H](NC(=O)[C@@H](Cc1ccc(O)cc1)NC(=O)[C@@H](CCCCN)NC(=O)[C@@H](CO)NC(=O)[C@@H](Cc1ccc(O)cc1)NC(=O)[C@@H](CC(=O)O)NC(=O)[C@@H](CO)NC(=O)[C@H](NC(=O)[C@H](NC(=O)CNC(=O)[C@@H](CCC(N)=O)NC(=O)[C@@H](CO)NC(=O)[C@H](N)Cc1c[nH]cn1)[C@H](C)O)[C@H](C)O)C(=O)N[C@H](CC(=O)O)C(=O)N[C@H](CO)C(=O)N[C@H](CCCN=C(N)N)C(=O)N[C@H](CCCN=C(N)N)C(=O)N[C@H](C)C(=O)N[C@H](CCC(N)=O)C(=O)N[C@H](CC(=O)O)C(=O)N[C@H](Cc1ccccc1)C(=O)N[C@@H](C(=O)N[C@H](CCC(N)=O)C(=O)N[C@H](Cc1c[nH]c2ccccc12)C(=O)N[C@H](CC(C)C)C(=O)N[C@H](CCS)C(=O)N[C@H](CC(N)=O)C(=O)N[C@@H](C=O)[C@H](C)O)C(C)C | 0.3% | 0%
6 | CSCC[C@@H](NC(=O)[C@@H](CC(C)C)NC(=O)[C@@H](Cc1c[nH]c2ccccc12)NC(=O)[C@@H](CCC(N)=O)NC(=O)[C@H](NC(=O)[C@@H](Cc1ccccc1)NC(=O)[C@@H](CC(=O)O)NC(=O)[C@@H](CCC(N)=O)NC(=O)[C@@H](C)NC(=O)[C@@H](CCCN=C(N)N)NC(=O)[C@@H](CCCN=C(N)N)NC(=O)[C@@H](CO)NC(=O)[C@@H](CC(=O)O)NC(=O)[C@@H](CC(C)C)NC(=O)[C@@H](Cc1ccc(O)cc1)NC(=O)[C@@H](CCCCN)NC(=O)[C@@H](CO)NC(=O)[C@@H](Cc1ccc(O)cc1)NC(=O)[C@@H](CCC(=O)O)NC(=O)[C@@H](CO)NC(=O)[C@H](NC(=O)[C@@H](CC(=O)O)NC(=O)[C@H](NC(=O)CNC(=O)[C@@H](CCC(N)=O)NC(=O)[C@H](N)CO)[C@H](C)O)[C@H](C)O)C(C)C)C(=O)N[C@H](CC(N)=O)C(=O)N[C@@H](C(N)=O)[C@H](C)O | < 0.1% | 0%
7 | CSCC[C@@H](NC(=O)[C@@H](CC(C)C)NC(=O)[C@@H](Cc1c[nH]c2ccccc12)NC(=O)[C@@H](CCC(N)=O)NC(=O)[C@H](NC(=O)[C@@H](Cc1ccccc1)NC(=O)[C@@H](CC(=O)O)NC(=O)[C@@H](CCC(N)=O)NC(=O)[C@@H](C)NC(=O)[C@@H](CCCN=C(N)N)NC(=O)[C@@H](CCCN=C(N)N)NC(=O)[C@@H](CO)NC(=O)[C@@H](CC(=O)O)NC(=O)[C@@H](CC(C)C)NC(=O)[C@@H](Cc1ccc(O)cc1)NC(=O)[C@@H](CCCCN)NC(=O)[C@@H](CO)NC(=O)[C@@H](Cc1ccc(O)cc1)NC(=O)[C@@H](CCC(=O)O)NC(=O)[C@@H](CO)NC(=O)[C@H](NC(=O)[C@@H](Cc1ccccc1)NC(=O)[C@H](NC(=O)[C@@H](CCC(N)=O)NC(=O)[C@H](N)CO)[C@H](C)O)[C@H](C)O)C(C)C)C(=O)N[C@H](CC(N)=O)C(=O)N[C@@H](C(N)=O)[C@H](C)O | 3% | 6%
8 | CSCC[C@@H](NC(=O)[C@@H](CC(C)C)NC(=O)[C@@H](Cc1c[nH]c2ccccc12)NC(=O)[C@@H](CCC(N)=O)NC(=O)[C@H](NC(=O)[C@@H](Cc1ccccc1)NC(=O)[C@@H](CC(=O)O)NC(=O)[C@@H](CCC(N)=O)NC(=O)[C@@H](C)NC(=O)[C@@H](CCCN=C(N)N)NC(=O)[C@@H](CCCN=C(N)N)NC(=O)[C@@H](CO)NC(=O)[C@@H](CC(=O)O)NC(=O)[C@@H](CC(C)C)NC(=O)[C@@H](Cc1ccc(O)cc1)NC(=O)[C@@H](CCCCN)NC(=O)[C@@H](CO)NC(=O)[C@@H](Cc1ccc(O)cc1)NC(=O)[C@@H](CCC(=O)O)NC(=O)[C@@H](CO)NC(=O)[C@H](NC(=O)[C@H](Cc1ccccc1)NC(=O)[C@H](NC(=O)CNC(=O)[C@@H](CCC(N)=O)NC(=O)[C@H](N)CO)[C@H](C)O)[C@H](C)O)C(C)C)C(=O)N[C@H](CC(N)=O)C(=O)N[C@@H](C(N)=O)[C@H](C)O | 1.5% | 0%
9 | CSCC[C@@H](NC(=O)[C@@H](CC(C)C)NC(=O)[C@@H](Cc1c[nH]c2ccccc12)NC(=O)[C@@H](CCC(N)=O)NC(=O)[C@H](NC(=O)[C@@H](Cc1ccccc1)NC(=O)[C@@H](CC(=O)O)NC(=O)[C@@H](CCC(N)=O)NC(=O)[C@@H](C)NC(=O)[C@@H](CCCN=C(N)N)NC(=O)[C@@H](CCCN=C(N)N)NC(=O)[C@@H](CO)NC(=O)[C@@H](CC(=O)O)NC(=O)[C@@H](CC(C)C)NC(=O)[C@@H](Cc1ccc(O)cc1)NC(=O)[C@@H](CCCCN)NC(=O)[C@@H](CO)NC(=O)[C@@H](Cc1ccc(O)cc1)NC(=O)[C@@H](CCC(=O)O)NC(=O)[C@@H](CO)NC(=O)[C@H](NC(=O)[C@@H](Cc1c[nH]c2ccccc12)NC(=O)[C@H](NC(=O)CNC(=O)[C@@H](CCC(N)=O)NC(=O)[C@H](N)CO)[C@H](C)O)[C@H](C)O)C(C)C)C(=O)N[C@H](CC(N)=O)C(=O)N[C@@H](C(N)=O)[C@H](C)O | 7.9% | 0%
10 | CSCC[C@@H](NC(=O)[C@@H](CC(C)C)NC(=O)[C@@H](Cc1c[nH]c2ccccc12)NC(=O)[C@@H](CCC(N)=O)NC(=O)[C@H](NC(=O)[C@@H](Cc1ccccc1)NC(=O)[C@@H](CC(=O)O)NC(=O)[C@@H](CCC(N)=O)NC(=O)[C@@H](C)NC(=O)[C@@H](CCCN=C(N)N)NC(=O)[C@@H](CCCN=C(N)N)NC(=O)[C@@H](CO)NC(=O)[C@@H](CC(=O)O)NC(=O)[C@@H](CC(C)C)NC(=O)[C@@H](Cc1ccc(O)cc1)NC(=O)[C@@H](CCCCN)NC(=O)[C@@H](CO)NC(=O)[C@@H](Cc1ccc(O)cc1)NC(=O)[C@@H](CC(=O)O)NC(=O)[C@@H](CO)NC(=O)[C@H](NC(=O)[C@H](NC(=O)CNC(=O)[C@@H](CCC(N)=O)NC(=O)[C@H](N)CO)[C@H](C)O)[C@H](C)O)C(C)C)C(=O)N[C@H](CC(N)=O)C(=O)N[C@@H](C(N)=O)[C@H](C)O | 1.2% | 0%
11 | CSCC[C@@H](NC(=O)[C@@H](CC(C)C)NC(=O)[C@@H](Cc1c[nH]c2ccccc12)NC(=O)[C@@H](CCC(N)=O)NC(=O)[C@H](NC(=O)[C@@H](Cc1ccccc1)NC(=O)[C@@H](CC(=O)O)NC(=O)[C@@H](CCC(N)=O)NC(=O)[C@@H](C)NC(=O)[C@@H](CCCN=C(N)N)NC(=O)[C@@H](CCCN=C(N)N)NC(=O)[C@@H](CO)NC(=O)[C@@H](CC(=O)O)NC(=O)[C@@H](CC(C)C)NC(=O)[C@@H](Cc1ccc(O)cc1)NC(=O)[C@@H](CCCCN)NC(=O)[C@@H](CO)NC(=O)[C@@H](Cc1ccc(O)cc1)NC(=O)[C@@H](CCC(=O)O)NC(=O)[C@@H](CO)NC(=O)[C@H](NC(=O)[C@@H](C)NC(=O)[C@H](NC(=O)CNC(=O)[C@@H](CCC(N)=O)NC(=O)[C@H](N)CO)[C@H](C)O)[C@H](C)O)C(C)C)C(=O)N[C@H](CC(N)=O)C(=O)N[C@@H](C(N)=O)[C@H](C)O | 1.2% | 0%
